Assay results reported in US20230049952A1, “METHODS AND COMPOUNDS FOR RESTORING MUTANT P53 FUNCTION” (PMV Pharmaceuticals, Inc., priority 2020, published 2023).
Read-outs that look alike come from different tables or passages of the source. Values belong to the compound of their own block, whether it stands above or below them.

Tests used:
[1] = cell batch quality control, BCRP-MDCK monolayers; format: in vitro ADME; conditions: dog; BCRP-MDCK cell batch QC; passage 23
Experimental: BCRP-MDCK cell monolayers were prepared at Absorption Systems. […] Each determination was performed in duplicate.

in vitro [2] = conditions: dog, MDCK-MDR1, pH 7.4
MATE1 [3] = target: T1, MATE1 (Homo sapiens, UniProt Q96FL8); assay: uptake transporter inhibition assessment, transfected HEK293; conditions: inhibitor 100 μM
T1 sequence (Q96FL8 whole entry): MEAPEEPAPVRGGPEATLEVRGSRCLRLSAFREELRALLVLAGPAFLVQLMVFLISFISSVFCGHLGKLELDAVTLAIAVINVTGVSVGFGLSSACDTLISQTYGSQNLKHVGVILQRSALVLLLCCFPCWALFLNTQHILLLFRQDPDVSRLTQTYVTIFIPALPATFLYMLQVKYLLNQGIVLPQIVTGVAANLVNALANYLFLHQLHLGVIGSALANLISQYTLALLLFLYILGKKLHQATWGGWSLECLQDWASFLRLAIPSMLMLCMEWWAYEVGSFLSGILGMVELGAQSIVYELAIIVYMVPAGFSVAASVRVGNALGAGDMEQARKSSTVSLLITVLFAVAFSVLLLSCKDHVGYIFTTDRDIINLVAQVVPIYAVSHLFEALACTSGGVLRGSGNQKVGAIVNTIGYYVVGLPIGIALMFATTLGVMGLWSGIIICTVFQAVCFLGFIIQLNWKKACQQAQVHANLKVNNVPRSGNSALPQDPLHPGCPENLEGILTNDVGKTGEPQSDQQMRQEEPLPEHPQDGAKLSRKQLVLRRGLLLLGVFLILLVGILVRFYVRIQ

MATE1 [4] = target: T1, MATE1; assay: in vitro; conditions: HEK293 cells transfected with MATE1, probe metformin (50 µM)
CYP1A2 = CYP1A2 (Homo sapiens, UniProt P05177); conditions: 20 min, 50 μM, pH 7.4
CYP1A2, sequence (P05177 whole entry): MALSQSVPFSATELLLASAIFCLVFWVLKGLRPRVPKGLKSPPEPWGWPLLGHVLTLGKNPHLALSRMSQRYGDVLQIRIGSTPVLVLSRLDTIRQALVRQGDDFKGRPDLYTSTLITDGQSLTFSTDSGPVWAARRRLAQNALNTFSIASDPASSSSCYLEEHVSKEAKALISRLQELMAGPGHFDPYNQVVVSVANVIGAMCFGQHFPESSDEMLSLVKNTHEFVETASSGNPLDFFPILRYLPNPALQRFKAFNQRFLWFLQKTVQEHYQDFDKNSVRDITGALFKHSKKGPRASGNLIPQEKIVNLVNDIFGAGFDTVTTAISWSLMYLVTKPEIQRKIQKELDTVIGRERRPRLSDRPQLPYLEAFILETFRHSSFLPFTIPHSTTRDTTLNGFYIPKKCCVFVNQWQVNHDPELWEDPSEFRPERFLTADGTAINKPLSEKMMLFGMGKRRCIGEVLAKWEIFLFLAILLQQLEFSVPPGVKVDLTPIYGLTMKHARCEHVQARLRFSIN

OAT3 [5] = target: T2, OAT3 (Homo sapiens, UniProt Q8TCC7); assay: in vitro; conditions: HEK293 cells transfected with OAT3, probe furosemide (5 µM)
T2 sequence (Q8TCC7 whole entry): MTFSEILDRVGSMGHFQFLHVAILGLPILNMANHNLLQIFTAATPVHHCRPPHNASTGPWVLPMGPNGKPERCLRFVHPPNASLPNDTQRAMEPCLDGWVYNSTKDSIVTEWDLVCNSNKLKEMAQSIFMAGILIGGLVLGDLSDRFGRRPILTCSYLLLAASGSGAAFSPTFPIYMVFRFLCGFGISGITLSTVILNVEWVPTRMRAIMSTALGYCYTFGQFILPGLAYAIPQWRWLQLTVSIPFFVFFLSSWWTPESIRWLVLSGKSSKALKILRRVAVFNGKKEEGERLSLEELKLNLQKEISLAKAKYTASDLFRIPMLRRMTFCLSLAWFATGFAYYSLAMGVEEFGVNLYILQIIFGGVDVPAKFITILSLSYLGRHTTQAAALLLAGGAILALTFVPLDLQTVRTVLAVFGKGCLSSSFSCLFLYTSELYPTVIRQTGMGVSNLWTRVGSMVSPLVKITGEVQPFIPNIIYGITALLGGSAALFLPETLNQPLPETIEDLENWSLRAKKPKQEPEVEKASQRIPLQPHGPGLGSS

OAT3 [6] = target: T2, OAT3; assay: uptake transporter inhibition assessment, transfected HEK293; conditions: inhibitor 100 μM
CYP2D6 [7] = target: T3, CYP2D6 (Homo sapiens, UniProt P10635); conditions: both, microsomes, 30 min, 0.123 µM, pH 7.4
T3 sequence (P10635 whole entry): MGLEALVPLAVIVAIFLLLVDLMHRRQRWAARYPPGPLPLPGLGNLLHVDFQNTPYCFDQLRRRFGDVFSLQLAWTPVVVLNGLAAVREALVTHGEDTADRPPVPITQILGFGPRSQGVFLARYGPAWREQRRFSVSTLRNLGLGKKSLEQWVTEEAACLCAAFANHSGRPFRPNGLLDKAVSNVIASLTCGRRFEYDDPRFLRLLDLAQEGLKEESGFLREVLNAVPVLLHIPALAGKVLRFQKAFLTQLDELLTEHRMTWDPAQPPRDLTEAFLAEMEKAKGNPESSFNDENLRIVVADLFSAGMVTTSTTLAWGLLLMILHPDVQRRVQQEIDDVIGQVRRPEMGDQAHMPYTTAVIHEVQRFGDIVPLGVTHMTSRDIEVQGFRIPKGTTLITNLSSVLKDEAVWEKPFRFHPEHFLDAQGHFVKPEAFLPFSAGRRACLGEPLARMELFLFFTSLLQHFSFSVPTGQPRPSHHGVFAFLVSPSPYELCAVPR

CYP2D6 [8] = target: T3, CYP2D6; assay: in vitro; conditions: both, microsomes, pH 7.4, % of Control Enzyme Activity
P-GP [9] = target: T4, P-GP (Homo sapiens, UniProt P08183); assay: P-GP substrate assessment, MDR1-MDCK monolayers; conditions: for Recovery (%): B-to-A
T4 sequence (P08183 whole entry): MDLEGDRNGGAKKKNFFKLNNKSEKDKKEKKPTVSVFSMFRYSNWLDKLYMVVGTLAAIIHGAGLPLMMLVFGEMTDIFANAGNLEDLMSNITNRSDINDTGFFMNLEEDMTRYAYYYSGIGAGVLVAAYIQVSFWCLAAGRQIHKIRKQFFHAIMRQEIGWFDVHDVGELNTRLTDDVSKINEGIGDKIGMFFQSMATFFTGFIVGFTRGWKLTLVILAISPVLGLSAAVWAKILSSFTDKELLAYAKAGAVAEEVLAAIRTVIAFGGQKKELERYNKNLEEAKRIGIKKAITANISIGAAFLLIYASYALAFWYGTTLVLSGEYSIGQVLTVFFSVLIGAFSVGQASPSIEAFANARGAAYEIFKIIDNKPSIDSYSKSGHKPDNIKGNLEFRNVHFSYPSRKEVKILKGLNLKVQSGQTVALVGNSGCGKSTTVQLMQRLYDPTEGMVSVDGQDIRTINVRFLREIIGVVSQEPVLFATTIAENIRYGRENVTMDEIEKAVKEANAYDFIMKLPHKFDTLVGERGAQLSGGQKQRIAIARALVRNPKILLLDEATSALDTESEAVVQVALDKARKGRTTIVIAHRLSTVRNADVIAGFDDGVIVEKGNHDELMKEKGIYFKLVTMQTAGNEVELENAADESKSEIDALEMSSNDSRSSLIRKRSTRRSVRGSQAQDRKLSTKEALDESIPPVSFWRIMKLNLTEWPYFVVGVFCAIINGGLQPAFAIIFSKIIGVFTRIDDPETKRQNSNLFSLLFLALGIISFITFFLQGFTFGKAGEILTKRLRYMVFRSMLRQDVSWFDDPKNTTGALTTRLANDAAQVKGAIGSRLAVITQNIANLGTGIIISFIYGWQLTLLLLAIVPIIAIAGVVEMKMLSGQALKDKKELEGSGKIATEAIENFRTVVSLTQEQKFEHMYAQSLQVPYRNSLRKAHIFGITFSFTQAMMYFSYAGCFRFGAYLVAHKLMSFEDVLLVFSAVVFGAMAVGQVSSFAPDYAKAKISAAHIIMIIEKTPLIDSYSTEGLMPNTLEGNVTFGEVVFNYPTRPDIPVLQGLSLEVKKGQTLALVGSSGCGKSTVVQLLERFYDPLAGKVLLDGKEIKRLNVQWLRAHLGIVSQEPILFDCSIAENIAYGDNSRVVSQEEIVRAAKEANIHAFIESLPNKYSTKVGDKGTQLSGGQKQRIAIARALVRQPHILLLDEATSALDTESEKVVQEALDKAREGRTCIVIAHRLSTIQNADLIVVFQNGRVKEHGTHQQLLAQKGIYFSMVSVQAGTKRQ

P-GP [10] = target: T4, P-GP; assay: in vitro; conditions: dog, MDCK-MDR1, pH 7.4
P-GP [11] = target: T4, P-GP; assay: in vitro
P-gp [12] = assay: in vitro; conditions: human, Caco-2, pH 7.4
in vitro [13] = conditions: human, Caco-2
P-GP [14] = target: T4, P-GP; assay: in vitro; conditions: Caco-2, pH 7.4
P-GP [15] = target: T4, P-GP; assay: P-GP substrate assessment, Caco-2 monolayers
P-gp [16] = assay: in vitro; conditions: dog, MDCK-MDR1, pH 7.4
P-gp (MDR1) = assay: in vitro; conditions: dog, MDCK-MDR1
P-GP [17] = target: T4, P-GP; conditions: Caco-2, 120 min, 10 µM, pH 7.4
[18] = CYP Control (negative control without CYP enzymes) in hrCYP reaction phenotyping; conditions: S-mephenytoin 20 μM, metabolite 4′ - OH Mephenytoin
in vitro [19] = conditions: for Analyte Peak/IS Peak Ares (Mean), T60-blood / Analyte Peak/IS Peak Ares (Mean), T60-plasma: 60 min; for Analyte Peak/IS Peak Ares (Mean), T60-blood / Analyte Peak/IS Peak Ares (Mean), T60-plasma / Analyte Peak/IS Peak Ares (Mean), T0: 2 μM; for Analyte Peak/IS Peak Ares (Mean), T0: 0 min
Experimental: All working solutions were freshly prepared similarly as described for the test article working solution.
Assay for determining Blood to plasma ratio: Pooled male CD-1 mouse, Sprague-Dawley rat, beagle dog and cynomolgus monkey plasma, and mixed gender human blood with EDTAK2 as anticoagulant were stored on wet ice and used the same day. […] After mixing thoroughly, 0.6 mL of spiked blood was transferred to a 96-well plate in triplicate. Concurrently, control compounds were spiked into each species blood in the same fashion to generate the final concentration of 2.0 μM.
The rest of the spiked blood samples were immediately placed into a humidified incubator with 5% CO2 at 37° C., with constant swiveling at 500 rpm for 60 min on a platform shaker. […] The T60-plasma samples for analysis were obtained by taking 50 μL of plasma from each well, mixed with 50 μL of blank blood and 100 μL of water, followed by addition of 600 μL stop solution. […] All the T0, T60-blood and T60-plasma samples were shaken vigorously at 800 rpm for 30 min followed by the centrifugation at 3220×g at 20° C. for 20 min. 100 μL aliquot of supernatant was diluted with 100 μL of water and mixed well for LC-MS/MS analysis.
Measurement of Hematocrit: The hematocrit (the volume percentage of erythrocytes in blood) was determined in triplicate for each species by centrifuging the blood samples with a HAEMATOKRIT 200 at 9440×g for 5 min.
Data analysis: The ratio of compound concentrations in whole blood over plasma (KB/P) and % Recovery in blood were calculated by the following equations: KB/P=[…]([T60-blood]/[T60-plasma]), where [T60-blood] is the peak area ratios of analyte/internal standard in whole blood sample at 60 min; [T60-plasma] is the peak area ratios of analyte/internal standard in plasma sample at 60 min; [T0-blood] is the peak area ratios of analyte/internal standard in whole blood sample at time zero.

CYP2C9 = CYP2C9 (Homo sapiens, UniProt P11712); conditions: 20 min, 6 μM, pH 7.4
CYP2C9, sequence (P11712 whole entry): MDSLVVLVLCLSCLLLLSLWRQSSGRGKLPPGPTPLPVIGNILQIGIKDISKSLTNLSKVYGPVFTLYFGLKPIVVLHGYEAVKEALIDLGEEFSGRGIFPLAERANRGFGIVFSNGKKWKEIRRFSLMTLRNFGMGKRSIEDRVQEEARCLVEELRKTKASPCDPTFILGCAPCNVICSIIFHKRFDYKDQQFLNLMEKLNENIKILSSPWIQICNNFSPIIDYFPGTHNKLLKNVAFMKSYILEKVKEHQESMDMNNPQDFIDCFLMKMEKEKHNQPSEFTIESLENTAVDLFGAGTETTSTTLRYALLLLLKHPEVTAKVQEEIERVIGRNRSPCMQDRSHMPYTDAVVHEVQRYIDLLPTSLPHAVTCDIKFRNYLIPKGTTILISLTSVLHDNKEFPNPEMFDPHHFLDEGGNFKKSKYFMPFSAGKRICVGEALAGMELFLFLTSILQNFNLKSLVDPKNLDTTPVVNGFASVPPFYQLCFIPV

MATE2K [20] = target: T5, MATE2K (Homo sapiens, UniProt Q86VL8); assay: in vitro; conditions: HEK293 cells transfected with MATE2K, probe metformin (50 µM)
T5 sequence (Q86VL8 1-566 isoform Q86VL8-3): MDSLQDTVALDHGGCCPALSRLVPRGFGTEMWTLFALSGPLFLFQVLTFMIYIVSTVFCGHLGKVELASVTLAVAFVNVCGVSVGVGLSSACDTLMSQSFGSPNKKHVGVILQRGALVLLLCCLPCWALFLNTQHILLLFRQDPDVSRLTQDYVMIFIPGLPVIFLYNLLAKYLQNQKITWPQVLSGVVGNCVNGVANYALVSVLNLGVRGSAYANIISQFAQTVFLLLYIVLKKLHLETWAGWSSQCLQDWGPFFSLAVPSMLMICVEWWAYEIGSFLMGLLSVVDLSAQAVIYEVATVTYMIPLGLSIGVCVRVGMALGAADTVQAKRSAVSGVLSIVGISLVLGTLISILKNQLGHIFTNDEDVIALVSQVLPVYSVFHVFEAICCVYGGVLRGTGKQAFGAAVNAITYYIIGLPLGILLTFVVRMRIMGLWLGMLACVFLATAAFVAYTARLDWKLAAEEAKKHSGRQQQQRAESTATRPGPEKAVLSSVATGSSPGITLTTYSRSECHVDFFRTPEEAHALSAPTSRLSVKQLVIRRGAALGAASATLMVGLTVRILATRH

MATE2K [21] = target: T5, MATE2K; assay: uptake transporter inhibition assessment, transfected HEK293; conditions: inhibitor 1 μM

Papp [1]: 20.1 ×10⁻⁶ cm/s
Papp at 120 min (in vitro [2]): 20.3 ×10⁻⁶ cm/s
Structure (SMILES): CC(C)NCC(O)COc1cccc2ccccc12 (stereo not drawn) [Propranolol]

inhibition at 100 µM (MATE1 [4]): 99.2%
Structure (SMILES): CN/C(=N/CCSCc1nc[nH]c1C)NC#N [Cimetidine]
Inhibition Potential Classification (MATE1 [3]): Positive (Percent inhibition≥50%: Positive)

Measured Metabolite (CYP1A2): 3.71 µM
Structure (SMILES): CCOc1ccc(NC(C)=O)cc1 [Phenacetin]
Formation Rate (CYP1A2): 1819 pmol metabolite/min/mg Supersome protein

inhibition at 100 µM (OAT3 [5]): 72%
Structure (SMILES): CCCN(CCC)S(=O)(=O)c1ccc(C(=O)O)cc1 [Probenecid]
Inhibition Potential Classification (OAT3 [6]): Positive (Percent inhibition≥50%: Positive)

% of Control Enzyme Activity (CYP2D6 [7]): 79.1%
activity at 30 min, 0.123 µM (CYP2D6 [8]): 95.8%
Structure (SMILES): Fc1ccc([C@@H]2CCNC[C@H]2COc2ccc3c(c2)OCO3)cc1 [Paroxetine]

P-gp Substrate Classification (P-GP [9]; Digoxin): Positive
Recovery (%) (P-GP [9]; Digoxin + 1 μM Valspodar): 85.9%
Papp AVG (P-GP [9]; Digoxin, A-to-B): 0.0321 10^−6 cm/s
Papp R1 (P-GP [9]; Digoxin, A-to-B): 0.0436 10^−6 cm/s
Recovery (%) (P-GP [9]; Digoxin): 74.9%
Papp B→A at 120 min (P-GP [10]): 10.4 ×10⁻⁶ cm/s
recovery at 120 min (P-GP [10]): 77.6%
recovery at 120 min, 10 µM (P-GP [11]; Caco-2, pH 7.4, % Recovery): 95.4%
Papp B→A at 120 min, 10 μM (P-GP [11]; Caco-2, pH 7.4, Papp AVG): 10.9 ×10⁻⁶ cm/s
Papp A→B at 120 min, 10 μM (P-GP [11]; Caco-2, pH 7.4, Papp R1): 0.344 ×10⁻⁶ cm/s
Papp A→B at 120 min, 10 μM (P-GP [11]; Caco-2, pH 7.4, Papp R2): 0.645 ×10⁻⁶ cm/s
Papp B→A at 120 min, 10 μM (P-GP [11]; Caco-2, pH 7.4, Papp R2): 10.5 ×10⁻⁶ cm/s
recovery at 120 min, 10 µM (P-GP [11]; Caco-2, pH 7.4, Recovery (%)): 73.4%
Papp A→B at 120 min (P-gp [12]): 0.403 ×10⁻⁶ cm/s
Papp B→A at 120 min (P-gp [12]): 8.93 ×10⁻⁶ cm/s
Papp A→B (in vitro [13]): 0.511 ×10⁻⁶ cm/s
Papp A→B at 120 min (P-GP [14]): 0.344 ×10⁻⁶ cm/s
Papp B→A at 120 min (P-GP [14]): 10.5 ×10⁻⁶ cm/s
recovery at 120 min (P-GP [14]): 73.4%
P-gp Substrate Classification (P-GP [15]; Digoxin): Positive
Recovery (%) (P-GP [15]; Digoxin + 1 μM Valspodar, A-to-B): 72.2%
Recovery (%) (P-GP [15]; Digoxin + 1 μM Valspodar, B-to-A): 95.3%
Papp AVG (P-GP [15]; Digoxin, A-to-B): 0.494 10^−6 cm/s
Papp AVG (P-GP [15]; Digoxin, B-to-A): 10.9 10^−6 cm/s
Papp R1 (P-GP [15]; Digoxin, B-to-A): 11.4 10^−6 cm/s
Recovery (%) (P-GP [15]; Digoxin, B-to-A): 79.9%
Papp A→B at 120 min (P-gp [16]): 0.0792 ×10⁻⁶ cm/s
Papp B→A (P-gp (MDR1)): 11 ×10⁻⁶ cm/s
Recovery (%) (P-GP [17]): 79.9%
Structure (SMILES): C[C@H]1O[C@@H](O[C@H]2[C@@H](O)C[C@H](O[C@H]3[C@@H](O)C[C@H](O[C@H]4CC[C@@]5(C)[C@H](CC[C@@H]6[C@@H]5C[C@@H](O)[C@]5(C)[C@@H](C7=CC(=O)OC7)CC[C@]65O)C4)O[C@@H]3C)O[C@@H]2C)C[C@H](O)[C@@H]1O [Digoxin, digoxin]

Structure (SMILES): CC[C@@]1(c2ccccc2)NC(=O)N(C)C1=O [S-mephenytoin]
Formation Rate [18]: 0 pmol metabolite/min/mg Supersome protein
Measured Metabolite [18]: 0 µM

Structure (SMILES): O=C(O)Cc1ccccc1Nc1c(Cl)cccc1Cl [Diclofenac]
recovery at 60 min, 2 μM (in vitro [19]; both, human): 91.2 ± 4.43%
Analyte Peak/IS Peak Ares (Mean), T60-blood (in vitro [19]; both, human): 0.311
Analyte Peak/IS Peak Ares (Mean), T60-plasma (in vitro [19]; both, human): 0.473
recovery at 60 min, 2 μM (in vitro [19]; male, CD-1, mouse): 100 ± 6.79%
Analyte Peak/IS Peak Ares (Mean), T60-blood (in vitro [19]; male, CD-1, mouse): 0.365
Analyte Peak/IS Peak Ares (Mean), T60-plasma (in vitro [19]; male, CD-1, mouse): 0.501
recovery at 60 min, 2 μM (in vitro [19]; male, Sprague-Dawley, rat): 100 ± 3.45%
Analyte Peak/IS Peak Ares (Mean), T0 (in vitro [19]; male, Sprague-Dawley, rat): 0.330
Analyte Peak/IS Peak Ares (Mean), T60-blood (in vitro [19]; male, Sprague-Dawley, rat): 0.331
Analyte Peak/IS Peak Ares (Mean), T60-plasma (in vitro [19]; male, Sprague-Dawley, rat): 0.480
recovery at 60 min, 2 μM (in vitro [19]; male, beagle, dog): 104 ± 1.36%
Analyte Peak/IS Peak Ares (Mean), T0 (in vitro [19]; male, beagle, dog): 0.301
Analyte Peak/IS Peak Ares (Mean), T60-blood (in vitro [19]; male, beagle, dog): 0.313
Analyte Peak/IS Peak Ares (Mean), T60-plasma (in vitro [19]; male, beagle, dog): 0.484
recovery at 60 min, 2 μM (in vitro [19]; male, cynomolgus monkey): 101 ± 8.23%
Analyte Peak/IS Peak Ares (Mean), T0 (in vitro [19]; male, cynomolgus monkey): 0.314
Analyte Peak/IS Peak Ares (Mean), T60-blood (in vitro [19]; male, cynomolgus monkey): 0.318
Analyte Peak/IS Peak Ares (Mean), T60-plasma (in vitro [19]; male, cynomolgus monkey): 0.513
Formation Rate (CYP2C9): 650 pmol metabolite/min/mg Supersome protein
Measured Metabolite (CYP2C9): 0.676 µM

inhibition at 1 µM (MATE2K [20]): 93.3%
Structure (SMILES): CCc1nc(N)nc(N)c1-c1ccc(Cl)cc1 [Pyrimethamine]
Inhibition Potential Classification (MATE2K [21]): Positive (Percent inhibition≥50%: Positive)
